Data taken from paper PMC10290117, “Molecular mechanism of phosphopeptide neoantigen immunogenicity” (Nature Communications, 2023).
Square brackets hold non-standard residues; d marks the D form. Ends that are not written are not given here. Peptide text beside a SMILES is read from it. Abu(4-PO3H2) = N[C@@H](CCP(=O)(O)O)C(=O)O; pS = N[C@@H](COP(=O)(O)O)C(=O)O

These compounds were tested against HLA-B*0702 (Homo sapiens, UniProt P01889) (assay: Alpha assay, peptide binding to HLA-B*0702). Conditions: Alpha assay (luminescent oxygen channeling), W6/32 antibody and biotinylated recombinant HLA class I; non-linear fit.
Experimental: (§1) Peptides were dissolved in dimethyl sulfoxide (DMSO) at concentrations of 2–20 mg/mL, aliquoted and stored at −80 °C. Peptide-pulsing experiments were performed by pre-incubating T2 cells with 25 μg peptide per 1 × 10^6 cells in PBS for 2 h at 37 °C and 5% CO2, washed three times to remove unbound peptides and used for further downstream analysis. Peptide-pulsed T2 cells were incubated with effector cells in a 2:1 ratio overnight in SF-IMDM at 37 °C and 10% CO2, washed twice and stained with anti-mouse TCR-® chain clone H57-597 (BD Pharmingen #560656, 1:500) for 30 min at RT. Cells were washed twice before FACS-analysis using a BD FACS Canto II with System software v2.0. Data analysis was performed using FlowJo V10 Software. Binding affinity between each peptide and HLA-B*0702 was determined using an Alpha assay. It is a homogenous, proximity-based assay for detection of peptides binding to HLA class I molecules using a conformation-dependent anti-HLA class I antibody, W6/32, as one tag and a biotinylated recombinant HLA class I molecule as the other tag, and a proximity-based signal was generated through the luminescent oxygen channeling immunoassay technology (PerkinElmer) as described.
For `CSCC[C@H](NC(=O)[C@H](CO)NC(=O)[C@H](Cc1c[nH]cn1)NC(=O)[C@H](CO)NC(=O)[C@@H]1CCCN1C(=O)[C@H](CCP(=O)(O)O)NC(=O)[C@H](CCCNC(=N)N)NC(=O)[C@@H]1CCCN1C(=O)[C@@H](N)CCC(=O)O)C(=O)O` [E7P-MLL747–755] (H-EPR[Abu(4-PO3H2)]PSHSM-OH), the Kd was 33.9 nM.
For `CSCC[C@H](NC(=O)[C@H](CO)NC(=O)[C@H](Cc1c[nH]cn1)NC(=O)[C@H](CO)NC(=O)[C@@H]1CCCN1C(=O)[C@H](COS(=O)(=O)O)NC(=O)[C@H](CCCNC(=N)N)NC(=O)[C@@H]1CCCN1C(=O)[C@@H](N)CCC(=O)O)C(=O)O` [OSE-MLL747–755], the Kd was 26.2 nM.
With `CC(C)C[C@H](NC(=O)[C@H](CCC(N)=O)NC(=O)[C@H](Cc1c[nH]cn1)NC(=O)[C@H](C)NC(=O)[C@@H]1CCCN1C(=O)[C@H](COP(=O)(O)O)NC(=O)[C@H](C)NC(=O)[C@@H]1CCCN1C(=O)[C@@H](N)CC(C)C)C(=O)O` [pDOT1L998–1006] (H-LPA[pS]PAHQL-OH) the Kd was 309 nM.
For `CSCC[C@H](NC(=O)[C@H](CO)NC(=O)[C@H](Cc1c[nH]cn1)NC(=O)[C@H](CO)NC(=O)[C@@H]1CCCN1C(=O)[C@H](COP(=O)(O)O)NC(=O)[C@H](CCCNC(=N)N)NC(=O)[C@@H]1CCCN1C(=O)[C@@H](N)CCC(=O)O)C(=O)O` [pMLL747–755] (H-EPR[pS]PSHSM-OH), the Kd was 56.7 nM.
In the case of EPRSPSHSM [MLL747–755], the Kd is reported as 27 nM.
Work on LPASPAHQL [DOT1L998–1006] yielded a Kd of 54.3 nM.

The compounds below were run on TCR27-AKD10R3 cells (assay: X-scan (peptide scan), EGFP reporter effector cells). Conditions: Fig. 1c source data, HLA B*07, T2 cells pulsed with 25 μg peptide per 1 × 10^6 cells, 2 h, 37 °C, effector cells 2:1 overnight, mean value of triplicate.
Assay type: cell-based, murine
Experimental: Tap-deficient T2 (174x CEM.T2) HLA-B*0702+ cells were received from Dr. Victor Engelhard. These and the commercially purchased Tap-deficient T2 (174 x CEM.T2) cells (ATCC CRL 1991) were maintained in RPMI 1640 (BioConcept) supplemented with 10% fetal calf serum (FCS, HyClone), 2mM L-glutamine and 1% Penicillin/Streptomycin at 37 °C and 5% CO2. The EGFP reporter cell line was based on a murine TCR negative thymoma cell line derived from strain BW5417 (ATCC®TIB-47TM) and was stably transduced with (a) TCR27 in which the human constant regions were replaced with those of mouse, (b) a chimeric mouse/human CD8, and (c) an EGFP reporter construct linked to a minimal IL-2 promoter comprising three NFAT-binding sites (3xNFAT)[44]. The transduced cells were termed TCR27-AKD10R3 cells and will be called the effector cells. Mouse cell lines were cultured in SF-IMDM (BioConcept) supplemented with 3% FCS, 1% Penicillin/Streptomycin, and 50 μM beta-mercaptoethanol at 37 °C and 10% CO2.
as §1
To identify the off-target peptides we have utilized an approach that was developed previously. In brief, we investigated which amino acids at each position in pMLL747–755 enable TCR interaction by sequentially replacing every amino acid position outside of the anchor positions 2 and 9 with all 19 alternative amino acids, resulting in 134 peptides (133 altered peptides plus original epitope). Each peptide was individually evaluated using cell-based in vitro cytotoxicity assay. To represent the TCR recognition kernel, we have defined Position Weight Matrices (PWMs) for each assay by assigning normalized measurements to each of the 20 amino acids in each position. To predict potential off-target peptides, we applied an algorithm projecting the PWM-defined kernel into the human proteome, scoring TCR27 recognition for the predicted HLA-B^*0702 binding 9-mer peptides. Of the 11 peptides with highest predicted cross-reactivity scores, we confirmed that only 2, […] and pDOT1L998–1006, strongly activated the TCR27-expressing effector T cells.
With “HPRsPSHSM [single-residue substitution of pMLL747–755, Pos 1]” the “Percentage GFP positive from TCR+ cells” value was 1.23%.
“IPRsPSHSM [single-residue substitution of pMLL747–755, Pos 1]” was tested, and the “Percentage GFP positive from TCR+ cells” value was 1.7%.
For “KPRsPSHSM [single-residue substitution of pMLL747–755, Pos 1]”, the “Percentage GFP positive from TCR+ cells” value was 1.37%.
In the case of “LPRsPSHSM [single-residue substitution of pMLL747–755, Pos 1]”, the “Percentage GFP positive from TCR+ cells” value is reported as 10.7%.
With “MPRsPSHSM [single-residue substitution of pMLL747–755, Pos 1]” the “Percentage GFP positive from TCR+ cells” value was 1.37%.
With “NPRsPSHSM [single-residue substitution of pMLL747–755, Pos 1]” the “Percentage GFP positive from TCR+ cells” value was 1.27%.
“PPRsPSHSM [single-residue substitution of pMLL747–755, Pos 1]” was tested, and the “Percentage GFP positive from TCR+ cells” value was 1.13%.
“QPRsPSHSM [single-residue substitution of pMLL747–755, Pos 1]” was tested, and the “Percentage GFP positive from TCR+ cells” value was 2.64%.
“RPRsPSHSM [single-residue substitution of pMLL747–755, Pos 1]” was tested, and the “Percentage GFP positive from TCR+ cells” value was 1.11%.
For “SPRsPSHSM [single-residue substitution of pMLL747–755, Pos 1]”, the “Percentage GFP positive from TCR+ cells” value was 1.08%.
“TPRsPSHSM [single-residue substitution of pMLL747–755, Pos 1]” was tested, and the “Percentage GFP positive from TCR+ cells” value was 1.28%.
“VPRsPSHSM [single-residue substitution of pMLL747–755, Pos 1]” was tested, and the “Percentage GFP positive from TCR+ cells” value was 1.39%.
For “WPRsPSHSM [single-residue substitution of pMLL747–755, Pos 1]”, the “Percentage GFP positive from TCR+ cells” value was 1.18%.
For “YPRsPSHSM [single-residue substitution of pMLL747–755, Pos 1]”, the “Percentage GFP positive from TCR+ cells” value was 1.32%.

Same assay, conditions: Fig. 1c source data, second set of control lines at the end of the sheet (no Pep code)
For “RVR[pS]PTRSL [unrelated phosphopeptide control of the X-scan, reference compound]”, the “Percentage GFP positive from TCR+ cells” value was 0.74%.
